Assay results published in ChEMBL document CHEMBL1124732, “Synthesis, conformation, and immunosuppressive activities of three analogues of cyclosporin A modified in the 1-position” (1990).

Test: Relative immunosuppressive activity tested against inhibition of concanavalin A stimulated thymocytes
Format: functional
Parameters: scale not given: the % may be the effect or the level left

Structure (SMILES): CC#CC[C@@H](C)[C@@H](O)[C@H]1C(=O)N[C@@H](CC)C(=O)N(C)CC(=O)N(C)[C@@H](CC(C)C)C(=O)N[C@@H](C(C)C)C(=O)N(C)[C@@H](CC(C)C)C(=O)N[C@@H](C)C(=O)N[C@H](C)C(=O)N(C)[C@@H](CC(C)C)C(=O)N(C)[C@@H](CC(C)C)C(=O)N(C)[C@@H](C(C)C)C(=O)N1C
- Activity: 10%
